Experimental data: patent US11478441B2, “Treatment of disease with n-acetyl kynurenine” (AMPIO PHARMACEUTICALS, INC., priority 2016, dated 2022)

Assay: Colorimetric (Ehrlich's reagent) detection of kynurenine-like molecules; thermal forced degradation / storage
Type: physicochemical
Excerpt: The quantitation of kynurenine-like species in […] was detected using a modified method by Meyer et al. (“Suitability of recombinant Escherichia coli and Pseudomonas putida strains for selective biotransformation of m-nitrotoluene by xylene monooxygenase”, Appl Environ Microbiol 71 (2005) 6624-6632). The method is based on the reaction of p-dimethylamino-benzaldehyde (DMAB or Ehrlich's reagent) with primary aromatic amines to form yellow imines in acidic conditions. Briefly, […], […] or kynurenine standard (0-800 μM in 0.9% saline) was combined in triplicate with 100 μL Ehrlich's reagent in a 96-well plate. The plate was read at 492 nm using a SpectraMax M2 plate reader (Molecular Devices, Sunnyvale, Calif., USA). […] […] was incubated at ambient temperature or 80° C. for 6 days. Aliquots were collected at 0, 1, 2, 3, or 6 days and analyzed in triplicate for kynurenine-like molecules using the colorimetric assay described in Section 2.3. Also, 4 mM N-acetyl tryptophan in 0.9% saline was incubated at 80° C. for 6 days.

CC(=O)N[C@@H](Cc1c[nH]c2ccccc12)C(=O)O [NAT, N-acetyl tryptophan]
concentration of kynurenine-like molecules (4 mM in 0.9% saline heated at 80° C. for 6 days): 11.6 µM | levels of kynurenine-like molecules (4 mM in 0.9% saline, t=0): undetectable
